# Reference: article PMC4533939, “Targeting lysyl oxidase for molecular imaging in breast cancer” (Breast Cancer Research : BCR, 2015)
# Where two headings read alike, the source gives them in different places.
# Key:
# [1] = test system: EMT-6 tumors; format: in vivo, BALB/c mice
# Description: Murine EMT-6 cells (5 × 10^6 cells in 100 μl of PBS) were injected into the upper left flank of female BALB/c mice (20–24 g; Charles River, Saint-Constant, QC, Canada). The EMT-6 tumor-bearing mice were imaged and used for ex vivo biodistribution experiments after allowing 7–10 days for the tumors to reach sizes of about 600 mm^3.
# (§1) PET experiments were performed with [^18F]FB-GGGDPKGGGGG-NH2 injected into EMT-6 tumor-bearing BALB/c mice or into NIH-III mice bearing subcutaneous MCF-7 or MDA-MB-231 tumors, and tracer uptake was analyzed in vivo. For radiotracer injection, a catheter was placed into the tail vein of the mouse. While under anesthesia, mice were placed in the prone position with the medial axis parallel to the axial axis of the scanner and the thorax, abdomen and hind legs placed into the center of the field of view of the microPET R4 or Inveon PET/computed tomography (CT) scanner (Siemens Preclinical Solutions, Knoxville, TN, USA). A transmission scan for attenuation correction was not acquired. [^18F]FB-GGGDPKGGGGG-NH2 (4–5 MBq) in 100–150 μl of saline was injected intravenously through the catheter into the tail vein. The effects of BAPN were analyzed after intraperitoneal injection of 2 mg (100 mg/kg) of the inhibitor 4 h and 24 h before radiotracer injection. For the different experimental protocols, either an emission scan 60 min postinjection (dynamic experiments) was performed immediately or a 20 min postinjection PET scan acquisition (static scan followed by CT scan) was performed. Depending on the experimental setup, data acquisition continued for either 60 min or 20 min in three-dimensional list mode. The dynamic list mode data were sorted into sinograms with 53 time frames (10×2 s, 8×5 s, 6×10 s, 6×20 s, 8×60 s, 10×120 s and 5×300 s). The frames were reconstructed using ordered subset expectation maximization or maximum a posteriori reconstruction modes.
# (§2) The pixel size was 0.085×0.085×0.12 cm, and the resolution in the center field of view was 1.8 mm. Correction for partial volume effects was not performed. The image files were further processed using the ROVER v2.0.51 software (ABX, Radeberg, Germany). Masks defining three-dimensional regions of interest (ROIs) were set, and the ROIs were defined by 50 % thresholding. Mean standardized uptake values (SUVmean = [activity/ml tissue]/[injected activity/body weight], mL/kg] were calculated for each ROI. Time–activity curves (TACs) were generated for the dynamic scans only. All semiquantified PET data are presented as mean ± SEM.
# [2] = test system: LOX; details: peptidyl lysine oxidation by LOX; cited from earlier work
# From the text: An alternative approach for specific targeting of LOX involves the use of oligopeptides. Nagan and Kagan have investigated collagen-like structures to explore peptide sequences derived from the lysine-containing N- and C-terminal telopeptides of collagen concerning their enzymatic conversion by LOX. […] It was concluded that the aspartic acid located two positions ...
# [3] = test system: MCF-7 tumors; format: in vivo, NIH-III nu/nu mice
# Description: Human MCF-7 cells, which form xenografts in female athymic mice, were injected subcutaneously (2–5×10^6 cells in 100 μl of PBS) into 8–10-week-old female NIH-III nu/nu mice (Charles River, Wilmington, MA, USA). Before injection of the cells, all mice received a 0.72-mg pellet containing 17β-estradiol in a 60-day release preparation (Innovative Research of America, Sarasota, FL, USA).
# (§3) The pellet was implanted subcutaneously into the upper right flank to provide a constant level of 17β-estradiol needed by the estrogen receptor (ER)-positive MCF-7 cells. Tumors were imaged 20–30 days after injection, with the tumors reaching sizes ranging from 200 to 400 mm^3. Human MDA-MB-231 cells (1×10^6 cells in 100 μl of PBS) were also injected subcutaneously into 8–10-week-old female NIH-III nu/nu mice. After 7–9 days, they reached a size of approximately 500 mm^3 and were suitable for the PET experiments.
# PET experiments were performed with [^18F]FB-GGGDPKGGGGG-NH2 injected into EMT-6 tumor-bearing BALB/c mice or into NIH-III mice bearing subcutaneous MCF-7 or MDA-MB-231 tumors, and tracer uptake was analyzed in vivo. For radiotracer injection, a catheter was placed into the tail vein of the mouse. While under anesthesia, mice were placed in the prone position with the medial axis parallel to the axial axis of the scanner and the thorax, abdomen and hind legs placed into the center of the field of view of the microPET R4 or Inveon PET/computed tomography (CT) scanner (Siemens Preclinical Solutions, Knoxville, TN, USA). A transmission scan for attenuation correction was not acquired. […] The effects of BAPN were analyzed after intraperitoneal injection of 2 mg (100 mg/kg) of the inhibitor 4 h and 24 h before radiotracer injection. […]
# (§4) The pixel size was 0.085×0.085×0.12 cm, and the resolution in the center field of view was 1.8 mm. […] Mean standardized uptake values (SUVmean = [activity/ml tissue]/[injected activity/body weight], mL/kg] were calculated for each ROI. Time–activity curves (TACs) were generated for the dynamic scans only. All semiquantified PET data are presented as mean ± SEM.
# [4] = set-up: species or system BALB/c mice; details: mouse, in vivo
# Description: (§5) Normal BALB/c mice received injections of approximately 25 MBq of [^18F]FB-GGGDPKGGGG. Venous blood samples were taken at 5, 15, 30 and 60 min postinjection and processed for determination of metabolic stability in vivo. Blood cells were separated by centrifugation (13,000 rpm for 5 min). Proteins in the supernatant were precipitated by addition of 2 volume parts of methanol followed by a second centrifugation step (13,000 rpm for 5 min). Radioactivity in blood components (cells, proteins and plasma) was measured using a Wallac Wizard 1480 3 automatic gamma counter. The clear plasma supernatant was examined using a Shimadzu HPLC system (Shimadzu Scientific Instruments, Columbia, MD, USA) equipped with a DGU-20A5 degasser, a SIL-20AHT autosampler, a LC-20AT pump, a SPD-M20A photo diode array detector and a RAMONA* radiodetector (Raytest Isotopenmessgeraete, Straubenhardt, Germany). The samples were analyzed using a Phenomenex Luna 10-μm C18(2) 100 Å, 250×4.6-mm column and the following gradients with water/0.2 % TFA as solvent A and acetonitrile as solvent B: 0–3 min 10 % B, 10 min 30 % B, 17 min 50 % B, 23 min 70 % B and 27–30 min 90 % B. The flow was constant at 1 ml/min, and the ultraviolet signals were measured at 210 nm and 254 nm.
# [5] = test system: MDA-MB-231 tumors; format: in vivo, NIH-III nu/nu mice
# Description: as §3
# as §1, with “Depending on the experimental setup, data acquisition continued for either 60 min or 20 min in three-dimensional list mode. The dynamic list mode data were sorted into sinograms with 53 time frames (10×2 s, 8×5 s, 6×10 s, 6×20 s, 8×60 s, 10×120 s and 5×300 s). The frames were reconstructed using ordered subset expectation maximization or maximum a posteriori reconstruction modes.” left out
# as §4
# [6] = test system: breast cancer tumor models; format: in vivo, mice; details: for tumor-to-blood ratio / tumor-to-muscle ratio: tumor model not stated
# Description: as §1, §2
# [7] = Radio-HPLC of plasma samples and quality control (retention time); format: physicochemical; details: Luna C18(2) 250×4.6 mm, water/0.2 % TFA - acetonitrile gradient, 1 ml/min; two more lipophilic radiometabolites eluted at 13.2 and 14.3 min
# Description: as §5
molecule,measurement,setting,value
"N#CCCN [BAPN, β-aminopropionitrile, reference compound]",reduction of maximum tumor uptake of the radiotracer (SUV5min),"[1]; EMT-6 tumor, 100 mg/kg BAPN (about 2 mg per mouse) i.p. 4 h before [18F]FB-GGGDPKGGGGG-NH2",approximately 33%
same,effect on radiotracer tumor uptake at 60 min postinjection,"[1]; EMT-6 tumor, BAPN predosing 4 h or 24 h",no effect
same,effect on radioactivity in muscle tissue,"[1]; muscle of EMT-6 tumor-bearing mice, BAPN predosing",unaltered
Ac-GGGDPKGGGGG-NH2 [oligopeptide substrate with favorable kinetic properties for LOX-mediated peptidyl lysine oxidation (Nagan and Kagan)],Michaelis constant (Km) among several collagen N-telopeptide derivatives,[2],lowest
same,kcat/Km among several collagen N-telopeptide derivatives,[2],highest
"[^18F]FB-GGGDPKGGGGG-NH2 [[^18F]fluorobenzoate-GGGDPKGGGGG-NH2, 18F-labeled LOX-targeting oligopeptide PET radiotracer]","SUV5min, tumor","[3]; MCF-7 tumor, 4-5 MBq i.v., 5 min postinjection, mean ± SEM, n = 6",0.59±0.03
same,"SUV60min, tumor","[3]; MCF-7 tumor, 60 min postinjection, mean ± SEM, n = 6",0.12±0.02
same,"SUV60min, muscle tissue","[3]; mouse, in vivo",0.05±0.008
same,share of injected radiotracer found in the plasma compartment,[4],> 60%
same,"SUV5min, tumor","[5]; MDA-MB-231 tumor, 4-5 MBq i.v., 5 min postinjection, mean ± SEM, n = 5",0.50±0.09
same,"SUV60min, tumor","[5]; MDA-MB-231 tumor, 60 min postinjection, mean ± SEM, n = 5",0.12±0.02
same,"SUV60min, muscle tissue","[5]; mouse, in vivo",0.04±0.004
same,tumor-to-blood ratio,[6]; 5 min postinjection,0.3
same,tumor-to-muscle ratio,[6]; 5 min postinjection,2.7
same,tumor-to-blood ratio,[6]; 60 min postinjection,2.3
same,tumor-to-muscle ratio,[6]; 60 min postinjection,1
same,time to maximum SUV in tumor,"[6]; mouse, in vivo",3 to 5 min
same,HPLC retention time,[7],12.2 min
same,"SUV5min, tumor","[1]; EMT-6 tumor, 4-5 MBq i.v., 5 min postinjection, mean ± SEM, n = 4",0.63±0.08
same,"SUV60min, tumor, in the absence and presence of BAPN","[1]; EMT-6 tumor, 60 min postinjection, control and BAPN-predosed groups",0.19–0.21
same,"SUV60min, tumor","[1]; EMT-6 tumor, 60 min postinjection, mean ± SEM, n = 4",0.19±0.02
same,"SUV5min, tumor, in the presence of BAPN","[1]; EMT-6 tumor, BAPN i.p. 24 h before radiotracer, mean ± SEM, n = 7, p > 0.05",0.52±0.05
same,"SUV60min, muscle tissue","[1]; mouse, in vivo",0.03±0.004
